{"source": "patent US20220202811A1", "about": "“TREATMENT FOR RETINOIC ACID RECEPTOR-RELATED ORPHAN RECEPTOR Ɣ (RORƔ)-DEPENDENT CANCERS” (The Regents of the University of California, priority 2019, published 2022)", "key": {"[1]": {"test_system": "non-germline KRAS/p53 organoids", "experiment": "non-germline KRAS/p53 organoid assay", "assay_type": "cell-based, mouse", "conditions": "3 μM, 6 μM, 9 μM JTE-151; 4 days", "procedure": "First, pharmacologic blockade of RORγ using JTE-151 was tested on pancreatic cell organoids as described above. Pancreatic cancer cells derived from two genetically engineered mouse models (GEMMS) were used for the organoid studies (FIGS. 47, 48). […] Then, electroporation was used to promote incorporation of the DNA into the pancreatic cells.\nAbout 4,000 organoids from each of the non-germline and germline mouse models were plated as single cells in multi-well plates, as described above, and treated with JTE-151 for 4 days (FIG. 48). Organoid number and size were analyzed after treatment. […] In the quantification, different doses of JTE-151 were plotted along the horizontal axis, and the volume of organoids was expressed as relative to control along the vertical axis. […] Organoid volume was then analyzed. Different doses of JTE-151 were plotted along the horizontal axis, and the vertical axis represents relative organoid volume to control."}, "pancreatic cancer cell": {"test_system": "pancreatic cancer cell", "experiment": "in vitro sphere formation, antagonists of Table 2", "assay_type": "cell-based, mouse", "conditions": "extent of growth suppression relative to control", "procedure": "Pancreatic tumorsphere formation assays were performed and modified from (Rovira et al., 2010). Briefly, low-passage (<6 passages) WT or REM2-KP^f/fC cell lines were infected with lentiviral particles containing shRNAs; positively infected (red) cells were sorted 72 hours after transduction. 100-300 infected cells were suspended in tumorsphere media: 100 μl DMEM F-12 (Gibco, Life Technologies) containing 1× B-27 supplement (Gibco, Life Technologies), 3% FBS, 100 μM B-mercaptoethanol (Gibco, Life Technologies), 1× non-essential amino acids (Gibco, Life Technologies), 1× N2 supplement (Gibco, Life Technologies), 20 ng/ml EGF (Gibco, Life Technologies), 20 ng/ml bFGF2 (Gibco, Life Technologies), and 10 ng/ml ESGRO mLIF (Thermo Fisher). Cells in media were plated in 96-well ultra-low adhesion culture plates (Costar) and incubated at 37° C. for 7 days. KP^f/fC in vitro tumorsphere formation studies were conducted at a minimum of n=3 independent wells per cell line across two independent shRNA of n=3 wells; however, the majority of these experiments were additionally completed in >1 independently-derived cell lines n=3, at n=3 wells per shRNA."}, "[2]": {"test_system": "LuCA KP lung cancer cells", "experiment": "lung cancer tumor sphere formation", "assay_type": "cell-based", "conditions": "0.3 μM, 0.6 μM, 1 μM, and 1.2 μM; relative to control", "from_the_text": "Then the number of formed tumor spheres were counted and quantified as relative to control."}, "[3]": {"test_system": "KP^f/fC derived flank tumors", "experiment": "KP^f/fC flank tumors in immunocompetent mice", "assay_type": "in vivo, mouse"}, "K562 cells": {"test_system": "K562 cells", "experiment": "k562 colony assay in methylcellulose", "assay_type": "cell-based, human", "from_the_text": "K562 is an aggressive human leukemia cell line generated from blast crisis chronic myeloid leukemia. […] Cells were allowed to grow over the course of 8 days before the numbers of formed colonies were counted. This was used to understand the functionality of k562 cells under different conditions. Cells treated with AZD-0284 formed fewer colonies and their morphology was smaller in comparison to the vehicle-treated cells."}, "[4]": {"test_system": "PDX1424, PDX1444, and FG cells", "experiment": "compilation of PDX or FG xenografts, AZD-0284", "assay_type": "in vivo, human", "from_the_text": "FIG. 45 is a compilation of all data from mice bearing PDX or FG cancer xenographs, including PDX1424, PDX1444, and FG."}, "[5]": {"conditions": "SR2211 in combination with gemcitabine"}, "[6]": {"conditions": "compilation of all data (FIG. 45)"}, "[7]": {"conditions": "especially at 90 mg/kg AZD-0284 (FIG. 44)"}}, "note": "Entries after “also recorded” stand apart in the source; their conditions may differ.", "data": [{"molecule": "Cc1ccc(NC(=O)C[C@H](CCC(=O)O)c2noc([C@H]3C[C@@H](CC(C)(C)C)C3)c2C2CC2)c(Cl)c1", "note": "[JTE-151, (4S)-6-[(2-chloro-4-methylphenyl)amino]-4-{4-cyclopropyl-5-[cis-3-(2,2-dimethylpropyl)cyclobutyl]isoxazol-3-yl}-6-oxohexanoic acid]", "values": [{"measurement": "organoid growth", "setting": "[1]", "value": "visibly and significantly impaired; also recorded: inhibited"}]}, {"molecule": "OC(c1ccc(-c2ccc(CN3CCN(Cc4ccncc4)CC3)cc2)c(F)c1)(C(F)(F)F)C(F)(F)F", "note": "[SR2211]", "values": [{"measurement": "in vitro sphere formation", "setting": "pancreatic cancer cell", "value": "✓✓✓✓ (dose response observed; growth suppressed by 8-fold or more relative to control)"}, {"measurement": "tumor sphere formation", "setting": "[2]", "value": "significantly reduced"}, {"measurement": "depletion in CD133+ cells", "setting": "[3]; SR2211 alone", "value": 3, "unit": "fold"}, {"measurement": "depletion in Msi+ cells", "setting": "[3]; SR2211 alone", "value": 3, "unit": "fold"}, {"measurement": "depletion of CD133+ cells", "setting": "[3]; [5]", "value": 11, "unit": "fold"}, {"measurement": "depletion of Msi2+ cells", "setting": "[3]; [5]", "value": 6, "unit": "fold"}]}, {"molecule": "CC(=O)N1Cc2cc(S(C)(=O)=O)ccc2[C@@H]1C(=O)Nc1ccc(C(O)(C(F)(F)F)C(F)(F)F)cc1", "note": "[AZD-0284]", "values": [{"measurement": "number of colonies formed", "setting": "K562 cells; 1 μM, 3 μM, 5 μM, 10 μM, and 15 μM AZD-0284, 8 days", "value": "significant reduction"}, {"measurement": "colony morphology", "setting": "K562 cells; in comparison to the vehicle-treated cells", "value": "smaller"}, {"measurement": "EpCam+ tumor epithelial cells", "setting": "[4]; [6]", "value": "decrease"}, {"measurement": "EpCam+/CD133+ tumor stem cells", "setting": "[4]; [6]", "value": "decrease"}, {"measurement": "cell number", "setting": "[4]; [6]", "value": "decrease"}, {"measurement": "EpCam+ tumor epithelial cells", "setting": "[4]; [7]", "value": "reduced"}, {"measurement": "EpCam+/CD133+ tumor stem cells", "setting": "[4]; [7]", "value": "reduced"}]}]}
